# Results: US10294202B2, “Pyrrolidinones as herbicides” (FMC Corporation, priority 2013, dated 2019)
# Legend:
# barnyardgrass [1] = assay: Test A pre-/postemergence herbicide test; type: in vivo, Echinochloa crus-galli; details: for Barnyardgrass plant response rating: visual rating on 0 to 100 scale (0 no effect, 100 complete control)
# Outline: (§1)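 Formulated compound (non-phytotoxic solvent, surfactant) sprayed pre- onto soil of seeded loam/sand pots or post- onto seedlings at 1–2 leaves; ~10 d greenhouse; 0–100 visual control rating versus untreated.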
# crabgrass, large = assay: Test A pre-/postemergence herbicide test; type: in vivo, Digitaria sanguinalis; details: for Crabgrass, Large plant response rating: visual rating on 0 to 100 scale (0 no effect, 100 complete control)
# Outline: as §1
# giant foxtail = assay: Test A pre-/postemergence herbicide test; type: in vivo, Setaria faberii; details: for Foxtail, Giant plant response rating: visual rating on 0 to 100 scale (0 no effect, 100 complete control)
# Outline: as §1
# morningglory = assay: Test A pre-/postemergence herbicide test; type: in vivo, Ipomoea spp.; details: for Morningglory plant response rating: visual rating on 0 to 100 scale (0 no effect, 100 complete control)
# Outline: as §1
# pigweed = assay: Test A pre-/postemergence herbicide test; type: in vivo, Amaranthus retroflexus; details: for Pigweed plant response rating: visual rating on 0 to 100 scale (0 no effect, 100 complete control)
# Outline: as §1
# velvetleaf = assay: Test A pre-/postemergence herbicide test; type: in vivo, Abutilon theophrasti; details: for Velvetleaf plant response rating: visual rating on 0 to 100 scale (0 no effect, 100 complete control)
# Outline: as §1
# wheat = assay: Test A pre-/postemergence herbicide test; type: in vivo, Triticum aestivum; details: for Wheat plant response rating: visual rating on 0 to 100 scale (0 no effect, 100 complete control)
# Outline: as §1
# corn = assay: Test A pre-/postemergence herbicide test; type: in vivo, Zea mays; details: for Corn plant response rating: visual rating on 0 to 100 scale (0 no effect, 100 complete control)
# Outline: as §1
# rice = assay: Test B flooded paddy test; type: in vivo, Oryza sativa; details: Flood, scale of 0 to 100 where 0 is no effect and 100 is complete control
# Outline: (§2)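 Scored visually 0–100 (0 no effect, 100 complete control) versus controls after 13 to 15 greenhouse days. Treatment: compound added to paddy water kept 3 cm above soil, on 2-leaf-stage plants.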
# sedge, umbrella = assay: Test B flooded paddy test; type: in vivo, Cyperus difformis; details: Flood, scale of 0 to 100 where 0 is no effect and 100 is complete control
# Outline: as §2
# ducksalad = assay: Test B flooded paddy test; type: in vivo, Heteranthera limosa; details: Flood, scale of 0 to 100 where 0 is no effect and 100 is complete control
# Outline: as §2
# barnyardgrass [2] = assay: Test B flooded paddy test; type: in vivo, Echinochloa crus-galli; details: Flood, scale of 0 to 100 where 0 is no effect and 100 is complete control
# Outline: as §2
# [3] = Postemergence, 125 g ai/ha, 0 to 100 scale, 0 is no effect, 100 is complete control
# [4] = Postemergence, 500 g ai/ha, 0 to 100 scale (0 no effect, 100 complete control)
# [5] = Preemergence, 125 g ai/ha, 0 to 100 scale where 0 is no effect and 100 is complete control
# [6] = preemergence, 500 g ai/ha, 0 to 100 scale, 0 is no effect and 100 is complete control
# [7] = Postemergence, 125 g ai/ha, 0 to 100 scale, 0 no effect, 100 complete control
# [8] = preemergence, 500 g ai/ha, 0 to 100 scale (0 no effect, 100 complete control)
# [9] = preemergence, 500 g ai/ha, 0 to 100 scale
smiles,measurement,setting,value
O=C1NCC(c2ccc(C(F)(F)F)c(Cl)c2)C1C(=O)Nc1ccccc1C(F)(F)F (racemic) [Compound 251],"Plant response rating, Barnyardgrass",barnyardgrass [1]; [3],0
same,"Plant response rating, Barnyardgrass",barnyardgrass [1]; [4],30
same,"Plant response rating, Barnyardgrass",barnyardgrass [1]; [5],20
same,"Plant response rating, Barnyardgrass",barnyardgrass [1]; [6],80
same,"Plant response rating, Crabgrass, Large","crabgrass, large; [3]",0
same,"Plant response rating, Crabgrass, Large","crabgrass, large; [4]",30
same,"Plant response rating, Crabgrass, Large","crabgrass, large; [5]",80
same,"Plant response rating, Crabgrass, Large","crabgrass, large; [6]",90
same,"Plant response rating, Foxtail, Giant",giant foxtail; [3],0
same,"Plant response rating, Foxtail, Giant",giant foxtail; [4],20
same,"Plant response rating, Foxtail, Giant",giant foxtail; [5],40
same,"Plant response rating, Foxtail, Giant",giant foxtail; [6],80
same,"Plant response rating, Morningglory",morningglory; [3],0
same,"Plant response rating, Morningglory",morningglory; [4],0
same,"Plant response rating, Morningglory",morningglory; [5],0
same,"Plant response rating, Morningglory",morningglory; [6],0
same,"Plant response rating, Pigweed",pigweed; [3],0
same,"Plant response rating, Pigweed",pigweed; [4],20
same,"Plant response rating, Pigweed",pigweed; [5],0
same,"Plant response rating, Pigweed",pigweed; [6],30
same,"Plant response rating, Velvetleaf",velvetleaf; [3],0
same,"Plant response rating, Velvetleaf",velvetleaf; [4],0
same,"Plant response rating, Velvetleaf",velvetleaf; [5],0
same,"Plant response rating, Velvetleaf",velvetleaf; [6],0
same,"Plant response rating, Wheat",wheat; [3],0
same,"Plant response rating, Wheat",wheat; [4],0
same,"Plant response rating, Wheat",wheat; [5],0
same,"Plant response rating, Wheat",wheat; [6],0
same,"Plant response rating, Corn",corn; [3],0
same,"Plant response rating, Corn",corn; [4],0
same,"Plant response rating, Corn",corn; [5],0
same,"Plant response rating, Corn",corn; [6],0
same,"Plant response rating, Rice",rice; 1000 g ai/ha,0
same,"Plant response rating, Sedge, Umbrella","sedge, umbrella; 1000 g ai/ha",0
same,"Plant response rating, Ducksalad",ducksalad; 1000 g ai/ha,90
same,"Plant response rating, Barnyardgrass",barnyardgrass [2]; 1000 g ai/ha,45
O=C1NCC(c2ccccc2)C1C(=O)Nc1cccc(F)c1F (stereo not drawn) [Compound 65],"Plant response rating, Barnyardgrass",barnyardgrass [1]; [7],20
same,"Plant response rating, Barnyardgrass",barnyardgrass [1]; [4],70
same,Barnyardgrass plant response rating,"barnyardgrass [1]; Preemergence, 125 g ai/ha",40
same,"Plant response rating, Barnyardgrass",barnyardgrass [1]; [8],90
same,"Plant response rating, Crabgrass, Large","crabgrass, large; [7]",90
same,"Plant response rating, Crabgrass, Large","crabgrass, large; [4]",90
same,"Crabgrass, Large plant response rating","crabgrass, large; Preemergence, 125 g ai/ha",90
same,"Plant response rating, Crabgrass, Large","crabgrass, large; [9]",90
same,"Plant response rating, Foxtail, Giant",giant foxtail; [7],50
same,"Plant response rating, Foxtail, Giant",giant foxtail; [4],90
same,"Foxtail, Giant plant response rating","giant foxtail; Preemergence, 125 g ai/ha",80
same,"Plant response rating, Foxtail, Giant",giant foxtail; [9],90
same,"Plant response rating, Morningglory",morningglory; [7],0
same,"Plant response rating, Morningglory",morningglory; [4],20
same,Morningglory plant response rating,"morningglory; Preemergence, 125 g ai/ha",0
same,"Plant response rating, Morningglory",morningglory; [9],0
same,"Plant response rating, Pigweed",pigweed; [7],0
same,"Plant response rating, Pigweed",pigweed; [4],0
same,Pigweed plant response rating,"pigweed; Preemergence, 125 g ai/ha",0
same,"Plant response rating, Pigweed",pigweed; [9],0
same,"Plant response rating, Velvetleaf",velvetleaf; [7],0
same,"Plant response rating, Velvetleaf",velvetleaf; [4],30
same,Velvetleaf plant response rating,"velvetleaf; Preemergence, 125 g ai/ha",0
same,"Plant response rating, Velvetleaf",velvetleaf; [9],0
same,"Plant response rating, Wheat",wheat; [7],0
same,"Plant response rating, Wheat",wheat; [4],20
same,Wheat plant response rating,"wheat; Preemergence, 125 g ai/ha",0
same,"Plant response rating, Wheat",wheat; [9],0
same,"Plant response rating, Corn",corn; [7],0
same,"Plant response rating, Corn",corn; [4],20
same,Corn plant response rating,"corn; Preemergence, 125 g ai/ha",0
same,"Plant response rating, Corn",corn; [9],0
same,"Plant response rating, Rice",rice; 250 g ai/ha,0
same,"Plant response rating, Sedge, Umbrella","sedge, umbrella; 250 g ai/ha",40
same,"Plant response rating, Ducksalad",ducksalad; 250 g ai/ha,80
same,"Plant response rating, Barnyardgrass",barnyardgrass [2]; 250 g ai/ha,0
"NC1=NCC(c2ccc(F)c(F)c2)C1C(=O)Nc1ccccc1F (stereo not drawn) [Compound 95, 2-amino-4-(3,4-difluorophenyl)-N-(2-fluorophenyl)dihydro-3H-pyrrole-3-carboxamide]","Plant response rating, Barnyardgrass",barnyardgrass [1]; [7],80
same,"Plant response rating, Barnyardgrass",barnyardgrass [1]; [4],90
same,Barnyardgrass plant response rating,"barnyardgrass [1]; Preemergence, 125 g ai/ha",60
same,"Plant response rating, Barnyardgrass",barnyardgrass [1]; [8],90
same,"Plant response rating, Crabgrass, Large","crabgrass, large; [7]",80
same,"Plant response rating, Crabgrass, Large","crabgrass, large; [4]",90
same,"Crabgrass, Large plant response rating","crabgrass, large; Preemergence, 125 g ai/ha",90
same,"Plant response rating, Crabgrass, Large","crabgrass, large; [9]",90
same,"Plant response rating, Foxtail, Giant",giant foxtail; [7],70
same,"Plant response rating, Foxtail, Giant",giant foxtail; [4],80
same,"Foxtail, Giant plant response rating","giant foxtail; Preemergence, 125 g ai/ha",80
same,"Plant response rating, Foxtail, Giant",giant foxtail; [9],90
same,"Plant response rating, Morningglory",morningglory; [7],0
same,"Plant response rating, Morningglory",morningglory; [4],0
same,Morningglory plant response rating,"morningglory; Preemergence, 125 g ai/ha",0
same,"Plant response rating, Morningglory",morningglory; [9],0
same,"Plant response rating, Pigweed",pigweed; [7],0
same,"Plant response rating, Pigweed",pigweed; [4],0
same,Pigweed plant response rating,"pigweed; Preemergence, 125 g ai/ha",0
same,"Plant response rating, Pigweed",pigweed; [9],0
same,"Plant response rating, Velvetleaf",velvetleaf; [7],0
same,"Plant response rating, Velvetleaf",velvetleaf; [4],0
same,Velvetleaf plant response rating,"velvetleaf; Preemergence, 125 g ai/ha",0
same,"Plant response rating, Velvetleaf",velvetleaf; [9],0
same,"Plant response rating, Wheat",wheat; [7],0
same,"Plant response rating, Wheat",wheat; [4],0
same,Wheat plant response rating,"wheat; Preemergence, 125 g ai/ha",0
same,"Plant response rating, Wheat",wheat; [9],0
same,"Plant response rating, Corn",corn; [7],0
same,"Plant response rating, Corn",corn; [4],0
same,Corn plant response rating,"corn; Preemergence, 125 g ai/ha",0
same,"Plant response rating, Corn",corn; [9],0
same,"Plant response rating, Rice",rice; 250 g ai/ha,0
same,"Plant response rating, Sedge, Umbrella","sedge, umbrella; 250 g ai/ha",0
same,"Plant response rating, Ducksalad",ducksalad; 250 g ai/ha,90
same,"Plant response rating, Barnyardgrass",barnyardgrass [2]; 250 g ai/ha,0
O=C1NCC(c2ccc(F)c(F)c2)C1C(=O)Nc1ccc[nH]c1=O (racemic) [Compound 97],"Plant response rating, Barnyardgrass",barnyardgrass [1]; [7],0
same,"Plant response rating, Barnyardgrass",barnyardgrass [1]; [4],0
same,Barnyardgrass plant response rating,"barnyardgrass [1]; Preemergence, 125 g ai/ha",0
same,"Plant response rating, Barnyardgrass",barnyardgrass [1]; [8],0
same,"Plant response rating, Crabgrass, Large","crabgrass, large; [7]",0
same,"Plant response rating, Crabgrass, Large","crabgrass, large; [4]",0
same,"Crabgrass, Large plant response rating","crabgrass, large; Preemergence, 125 g ai/ha",0
same,"Plant response rating, Crabgrass, Large","crabgrass, large; [9]",0
same,"Plant response rating, Foxtail, Giant",giant foxtail; [7],0
same,"Plant response rating, Foxtail, Giant",giant foxtail; [4],0
same,"Foxtail, Giant plant response rating","giant foxtail; Preemergence, 125 g ai/ha",0
same,"Plant response rating, Foxtail, Giant",giant foxtail; [9],0
same,"Plant response rating, Morningglory",morningglory; [7],0
same,"Plant response rating, Morningglory",morningglory; [4],0
same,Morningglory plant response rating,"morningglory; Preemergence, 125 g ai/ha",0
same,"Plant response rating, Morningglory",morningglory; [9],0
same,"Plant response rating, Pigweed",pigweed; [7],0
same,"Plant response rating, Pigweed",pigweed; [4],0
same,Pigweed plant response rating,"pigweed; Preemergence, 125 g ai/ha",0
same,"Plant response rating, Pigweed",pigweed; [9],0
same,"Plant response rating, Velvetleaf",velvetleaf; [7],0
same,"Plant response rating, Velvetleaf",velvetleaf; [4],0
same,Velvetleaf plant response rating,"velvetleaf; Preemergence, 125 g ai/ha",0
same,"Plant response rating, Velvetleaf",velvetleaf; [9],0
same,"Plant response rating, Wheat",wheat; [7],0
same,"Plant response rating, Wheat",wheat; [4],0
same,Wheat plant response rating,"wheat; Preemergence, 125 g ai/ha",0
same,"Plant response rating, Wheat",wheat; [9],0
same,"Plant response rating, Corn",corn; [7],0
same,"Plant response rating, Corn",corn; [4],0
same,Corn plant response rating,"corn; Preemergence, 125 g ai/ha",0
same,"Plant response rating, Corn",corn; [9],0
same,"Plant response rating, Rice",rice; 250 g ai/ha,50
same,"Plant response rating, Sedge, Umbrella","sedge, umbrella; 250 g ai/ha",75
same,"Plant response rating, Ducksalad",ducksalad; 250 g ai/ha,70
same,"Plant response rating, Barnyardgrass",barnyardgrass [2]; 250 g ai/ha,50
